Measurements published in ChEMBL document CHEMBL5346880, “ATP-competitive inhibitors of human DNA topoisomerase IIα with improved antiproliferative activity based on N-phenylpyrrolamide scaffold” (Eur J Med Chem, 2023).
Active and inactive are the calls of the source. The calls are words filed in the database; no cut-off is given here.

How the values were obtained:
[1] = biological target: DNA topoisomerase 2-beta (Homo sapiens, UniProt Q02880); test: Inhibition of human DNA topoisomerase 2 beta assessed as relaxation of supercoiled plasmid pBR322 DNA incubated for 30 mins by ethidium bromide staining based agarose gel electrophoresis
DNA topoisomerase 2-beta, sequence (Q02880 whole entry): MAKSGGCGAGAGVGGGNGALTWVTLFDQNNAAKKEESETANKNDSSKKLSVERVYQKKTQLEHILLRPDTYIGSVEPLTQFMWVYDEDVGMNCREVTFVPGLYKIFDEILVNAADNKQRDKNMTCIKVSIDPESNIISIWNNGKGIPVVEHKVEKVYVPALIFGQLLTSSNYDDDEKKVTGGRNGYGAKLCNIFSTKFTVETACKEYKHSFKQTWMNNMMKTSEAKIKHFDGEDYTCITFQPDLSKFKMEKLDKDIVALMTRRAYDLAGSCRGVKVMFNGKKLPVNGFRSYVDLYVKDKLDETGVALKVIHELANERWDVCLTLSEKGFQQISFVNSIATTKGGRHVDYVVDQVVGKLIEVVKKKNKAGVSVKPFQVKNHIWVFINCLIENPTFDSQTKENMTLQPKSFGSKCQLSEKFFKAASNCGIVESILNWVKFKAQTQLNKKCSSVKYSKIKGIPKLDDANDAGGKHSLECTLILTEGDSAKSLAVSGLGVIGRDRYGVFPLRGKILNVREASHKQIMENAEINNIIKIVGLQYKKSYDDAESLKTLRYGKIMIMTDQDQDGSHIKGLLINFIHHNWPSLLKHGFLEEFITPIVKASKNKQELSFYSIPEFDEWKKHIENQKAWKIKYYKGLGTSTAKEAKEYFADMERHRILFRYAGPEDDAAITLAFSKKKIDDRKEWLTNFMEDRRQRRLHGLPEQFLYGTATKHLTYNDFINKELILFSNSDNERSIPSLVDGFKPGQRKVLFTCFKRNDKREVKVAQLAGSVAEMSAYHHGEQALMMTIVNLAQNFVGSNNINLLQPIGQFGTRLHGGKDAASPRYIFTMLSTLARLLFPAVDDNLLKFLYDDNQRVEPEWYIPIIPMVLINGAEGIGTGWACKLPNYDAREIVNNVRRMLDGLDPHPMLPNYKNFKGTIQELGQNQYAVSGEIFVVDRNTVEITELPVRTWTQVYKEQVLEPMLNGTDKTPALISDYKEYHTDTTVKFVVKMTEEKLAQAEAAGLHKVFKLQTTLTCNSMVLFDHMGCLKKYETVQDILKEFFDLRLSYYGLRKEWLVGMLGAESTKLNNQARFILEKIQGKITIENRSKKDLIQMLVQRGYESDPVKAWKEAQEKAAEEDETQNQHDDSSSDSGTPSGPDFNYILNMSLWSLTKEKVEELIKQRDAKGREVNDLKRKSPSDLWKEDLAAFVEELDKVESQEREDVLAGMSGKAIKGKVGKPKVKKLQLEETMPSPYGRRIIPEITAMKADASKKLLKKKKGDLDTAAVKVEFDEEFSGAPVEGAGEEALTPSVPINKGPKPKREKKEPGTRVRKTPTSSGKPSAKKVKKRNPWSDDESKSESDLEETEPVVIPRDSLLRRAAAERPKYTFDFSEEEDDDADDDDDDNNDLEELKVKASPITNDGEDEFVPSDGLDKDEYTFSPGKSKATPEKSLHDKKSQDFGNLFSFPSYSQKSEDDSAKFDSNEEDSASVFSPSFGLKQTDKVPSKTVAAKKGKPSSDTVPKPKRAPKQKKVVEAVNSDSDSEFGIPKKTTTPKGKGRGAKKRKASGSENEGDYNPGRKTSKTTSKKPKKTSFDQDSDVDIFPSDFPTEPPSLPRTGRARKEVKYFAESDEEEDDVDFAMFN

[2] = Thermodynamic aqueous solubility of compound in PBS buffer at pH 7.4 at 25 degreeC measured after 24 hrs by UPLC analysis; assay type: physicochemical; conditions: read-out: Therm_solubility
[3] = biological target: T1, DNA topoisomerase 2-alpha (Homo sapiens, UniProt P11388); test: Inhibition of human DNA topoisomerase 2 alpha assessed as relaxation of supercoiled plasmid pNO1 DNA incubated for 30 mins by fluorescence based analysis
T1 sequence (P11388 whole entry): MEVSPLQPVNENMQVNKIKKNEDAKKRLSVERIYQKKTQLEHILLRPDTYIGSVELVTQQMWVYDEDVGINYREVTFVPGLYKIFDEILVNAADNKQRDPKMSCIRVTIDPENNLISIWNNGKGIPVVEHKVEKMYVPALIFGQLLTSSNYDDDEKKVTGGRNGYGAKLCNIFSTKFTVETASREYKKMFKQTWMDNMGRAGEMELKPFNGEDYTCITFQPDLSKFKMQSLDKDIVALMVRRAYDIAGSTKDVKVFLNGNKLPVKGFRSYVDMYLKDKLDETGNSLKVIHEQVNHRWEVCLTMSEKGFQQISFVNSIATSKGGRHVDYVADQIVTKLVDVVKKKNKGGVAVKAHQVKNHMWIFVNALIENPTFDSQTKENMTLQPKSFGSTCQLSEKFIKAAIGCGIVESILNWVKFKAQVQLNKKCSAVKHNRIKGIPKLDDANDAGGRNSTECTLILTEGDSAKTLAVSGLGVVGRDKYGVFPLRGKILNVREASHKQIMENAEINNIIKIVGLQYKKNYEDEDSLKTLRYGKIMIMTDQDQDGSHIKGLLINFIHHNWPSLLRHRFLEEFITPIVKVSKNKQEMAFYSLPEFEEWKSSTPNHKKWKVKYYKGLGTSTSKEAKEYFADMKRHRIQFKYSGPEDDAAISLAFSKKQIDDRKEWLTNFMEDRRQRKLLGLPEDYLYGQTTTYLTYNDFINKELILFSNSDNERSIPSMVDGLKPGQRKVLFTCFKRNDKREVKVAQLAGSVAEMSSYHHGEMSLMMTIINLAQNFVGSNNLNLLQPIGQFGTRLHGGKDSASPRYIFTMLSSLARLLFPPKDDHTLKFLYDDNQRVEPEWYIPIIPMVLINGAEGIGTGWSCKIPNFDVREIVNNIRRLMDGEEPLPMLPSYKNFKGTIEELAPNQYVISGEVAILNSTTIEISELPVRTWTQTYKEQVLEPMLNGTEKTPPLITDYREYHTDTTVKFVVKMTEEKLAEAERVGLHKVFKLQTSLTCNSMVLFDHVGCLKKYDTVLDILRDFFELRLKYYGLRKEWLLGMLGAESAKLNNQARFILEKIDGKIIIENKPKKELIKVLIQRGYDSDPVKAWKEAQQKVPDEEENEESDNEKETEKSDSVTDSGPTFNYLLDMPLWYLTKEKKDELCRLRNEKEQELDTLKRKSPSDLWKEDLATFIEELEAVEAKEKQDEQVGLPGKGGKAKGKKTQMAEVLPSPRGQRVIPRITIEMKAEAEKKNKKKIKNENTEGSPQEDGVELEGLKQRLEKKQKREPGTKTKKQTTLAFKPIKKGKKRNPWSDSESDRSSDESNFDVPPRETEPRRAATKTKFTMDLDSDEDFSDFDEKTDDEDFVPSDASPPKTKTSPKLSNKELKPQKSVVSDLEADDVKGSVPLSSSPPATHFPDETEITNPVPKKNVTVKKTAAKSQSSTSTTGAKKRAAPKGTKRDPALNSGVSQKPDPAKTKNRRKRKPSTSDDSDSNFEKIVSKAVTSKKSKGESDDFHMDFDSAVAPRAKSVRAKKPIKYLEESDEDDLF

[4] = Metabolic stability in rat liver S9 fraction assessed as half life at 100 uM measured upto 120 mins in presence of NADPH by HPLC analysis; assay type: ADME, subcellular
[5] = biological target: T2, DNA topoisomerase 1 (Homo sapiens, UniProt P11387); test: Inhibition of human DNA Topoisomerase 1 assessed as relaxation of supercoiled plasmid pBR322 DNA incubated for 30 mins by ethidium bromide staining based agarose gel electrophoresis
T2 sequence (P11387 whole entry): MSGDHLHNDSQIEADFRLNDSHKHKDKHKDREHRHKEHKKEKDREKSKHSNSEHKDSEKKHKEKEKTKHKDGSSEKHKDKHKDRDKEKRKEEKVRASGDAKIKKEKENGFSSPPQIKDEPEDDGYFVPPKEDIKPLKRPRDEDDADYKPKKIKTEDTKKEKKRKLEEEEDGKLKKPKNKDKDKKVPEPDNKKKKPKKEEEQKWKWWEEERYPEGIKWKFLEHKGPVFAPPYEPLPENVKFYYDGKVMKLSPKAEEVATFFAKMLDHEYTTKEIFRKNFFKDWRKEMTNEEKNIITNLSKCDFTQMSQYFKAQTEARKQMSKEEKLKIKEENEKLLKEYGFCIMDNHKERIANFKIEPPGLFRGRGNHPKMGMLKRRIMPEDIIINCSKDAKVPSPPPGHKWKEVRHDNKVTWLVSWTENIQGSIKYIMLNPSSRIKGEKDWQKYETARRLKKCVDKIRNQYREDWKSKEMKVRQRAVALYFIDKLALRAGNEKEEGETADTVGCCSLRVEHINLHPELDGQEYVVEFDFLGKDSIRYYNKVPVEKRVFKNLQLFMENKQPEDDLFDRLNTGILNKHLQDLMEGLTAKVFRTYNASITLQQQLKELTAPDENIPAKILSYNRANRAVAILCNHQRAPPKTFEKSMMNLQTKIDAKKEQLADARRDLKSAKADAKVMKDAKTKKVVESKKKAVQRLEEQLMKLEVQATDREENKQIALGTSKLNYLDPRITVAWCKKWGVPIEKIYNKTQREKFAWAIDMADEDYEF

[6] = biological target: T1, DNA topoisomerase 2-alpha; test: Inhibition of human DNA topoisomerase 2 alpha assessed as ATP hydrolysis measured for 30 mins by absorbance based assay
[7] = tested on: HCC 2998; test: Cytotoxicity against human HCC 2998 cells assessed as reduction in cell viability at 10 uM by MTT assay; assay type: functional, cell-based
[8] = tested on: MOLT-4; test: Cytotoxicity against human MOLT-4 cells assessed as reduction in cell viability at 10 uM by MTT assay; assay type: functional, cell-based
[9] = tested on: SW-620; test: Cytotoxicity against human SW620 cells assessed as reduction in cell viability at 10 uM by MTT assay; assay type: functional, cell-based
[10] = tested on: CCRF-CEM; test: Cytotoxicity against human CCRF-CEM cells assessed as reduction in cell viability at 10 uM by MTT assay; assay type: functional, cell-based
[11] = tested on: HT-29; test: Cytotoxicity against human HT-29 cells assessed as reduction in cell viability at 10 uM by MTT assay; assay type: functional, cell-based
[12] = tested on: HCT-15; test: Cytotoxicity against human HCT-15 cells assessed as reduction in cell viability at 10 uM by MTT assay; assay type: functional, cell-based
[13] = tested on: HCT-116; test: Cytotoxicity against human HCT-116 cells assessed as reduction in cell viability at 10 uM by MTT assay; assay type: functional, cell-based
[14] = tested on: K562; test: Cytotoxicity against human K562 cells assessed as reduction in cell viability at 10 uM by MTT assay; assay type: functional, cell-based
[15] = tested on: SR; test: Cytotoxicity against human SR cells assessed as reduction in cell viability at 10 uM by MTT assay; assay type: functional, cell-based
[16] = tested on: KM12; test: Cytotoxicity against human KM12 cells assessed as reduction in cell viability at 10 uM by MTT assay; assay type: functional, cell-based
[17] = tested on: COLO 205; test: Cytotoxicity against human COLO 205 cells assessed as reduction in cell viability at 10 uM by MTT assay; assay type: functional, cell-based
[18] = tested on: HL-60; test: Cytotoxicity against human HL-60 cells assessed as reduction in cell viability at 10 uM by MTT assay; assay type: functional, cell-based

`Cc1[nH]c(C(=O)Nc2ccc(C(N)=O)cc2OCc2ccc(C(=O)NCCN)cc2)c(Cl)c1Cl.Cl.Cl` showed an IC50 [1] of 550 nM, a solubility thermodynamic at 24 h [2] of 9.2 µM and an IC50 [3] of 670 nM. For the same compound, the half-life at 100 µM [4] was 1.67 h and the IC50 [5] was greater than 5000 nM.

In the case of `Cc1[nH]c(C(=O)Nc2ccc(C(=O)NCCN)cc2OC(C)C)c(Cl)c1Cl.Cl`, the IC50 [6] is reported as 2800 nM, the Activity [7] is reported as “Active” and the Activity [8] is reported as “Active”. For the same compound, the Activity [9] was “Active”, the Activity [10] was “Active” and the Activity [11] was “Active”. The solubility thermodynamic at 24 h [2] was 16 µM, the IC50 [3] was 6000 nM and the Activity [12] was “Active”. For the same compound, the half-life at 100 µM [4] was greater than 5 h, the Activity [13] was “Active” and the Activity [14] was “Active”. For the same compound, the Activity [15] was “Active”, the Activity [16] was “Active” and the Activity [17] was “Active”. For the same compound, the Activity [18] was “Active”.
